Key:
Experiment in all cases: relative viability (nuclei count vs DMSO), 5 days (fraction); higher = more cells survive
FG-4592 + Tozasertib = compound: Cc1nc(C(=O)NCC(=O)O)c(O)c2ccc(Oc3ccccc3)cc12 [FG-4592] + Cc1cc(Nc2cc(N3CCN(C)CC3)nc(Sc3ccc(NC(=O)C4CC4)cc3)n2)n[nH]1 [Tozasertib] (partner 0.1 µM)
Outline: (§1)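 Medians of duplicate plates are given as relative viability. That measure is the nuclei count in treated wells divided by the count in vehicle wells. Counts were taken on 4× images of lung cancer cell lines in 1536-well plates, 5 days after pin-tool dosing the day after seeding with one drug alone or a fixed anchor-drug dose plus five library-drug doses (not always all listed) in √10 steps.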

IU1-47 + Trametinib = compound: CC1=CC(=C(N1C2=CC=C(C=C2)Cl)C)C(=O)CN3CCCCC3 [IU1-47] + CC(=O)Nc1cccc(-n2c(=O)n(C3CC3)c(=O)c3c(Nc4ccc(I)cc4F)n(C)c(=O)c(C)c32)c1 [Trametinib] (partner 0.02 µM)
Outline: as §1

FG-4592 + Navitoclax = compound: Cc1nc(C(=O)NCC(=O)O)c(O)c2ccc(Oc3ccccc3)cc12 [FG-4592] + CC1(C)CCC(c2ccc(Cl)cc2)=C(CN2CCN(c3ccc(C(=O)NS(=O)(=O)c4ccc(N[C@H](CCN5CCOCC5)CSc5ccccc5)c(S(=O)(=O)C(F)(F)F)c4)cc3)CC2)C1 [Navitoclax] (partner 0.5 µM)
Outline: as §1

IU1-47 + Bortezomib = compound: CC1=CC(=C(N1C2=CC=C(C=C2)Cl)C)C(=O)CN3CCCCC3 [IU1-47] + CC(C)C[C@H](NC(=O)[C@H](Cc1ccccc1)NC(=O)c1cnccn1)B(O)O [Bortezomib] (partner 0.002 µM)
Outline: as §1

With UMC-11 the relative viability (FG-4592 + Tozasertib; first compound 0.08 µM) was 0.217, the relative viability (FG-4592 + Tozasertib; first compound 0.253 µM) was 0.184 and the relative viability (FG-4592 + Tozasertib; first compound 0.8 µM) was 0.199. For the same cell line, the relative viability (FG-4592 + Tozasertib; first compound 2.53 µM) was 0.203, the relative viability (FG-4592 + Tozasertib; first compound 8 µM) was 0.198 and the relative viability (IU1-47 + Trametinib; first compound 0.08 µM) was 0.681. For the same cell line, the relative viability (IU1-47 + Trametinib; first compound 0.253 µM) was 0.681, the relative viability (IU1-47 + Trametinib; first compound 0.8 µM) was 0.748 and the relative viability (IU1-47 + Trametinib; first compound 2.53 µM) was 0.741. It also gave a relative viability (IU1-47 + Trametinib; first compound 8 µM) of 0.664, a relative viability (FG-4592 + Navitoclax; first compound 0.08 µM) of 0.391 and a relative viability (FG-4592 + Navitoclax; first compound 0.253 µM) of 0.321. It also gave a relative viability (FG-4592 + Navitoclax; first compound 0.8 µM) of 0.29, a relative viability (FG-4592 + Navitoclax; first compound 2.53 µM) of 0.312 and a relative viability (FG-4592 + Navitoclax; first compound 8 µM) of 0.274. It also gave a relative viability (IU1-47 + Bortezomib; first compound 0.08 µM) of 0.653, a relative viability (IU1-47 + Bortezomib; first compound 0.253 µM) of 0.618 and a relative viability (IU1-47 + Bortezomib; first compound 0.8 µM) of 0.673. The relative viability (IU1-47 + Bortezomib; first compound 2.53 µM) was 1.04 and the relative viability (IU1-47 + Bortezomib; first compound 8 µM) was 0.575.

Source: the supplement of paper PMC10307832
